Results on nine molecules are retold here after paper PMC8424300, “Identification of novel microtubule inhibitors effective in fission yeast and human cells and their effects on breast cancer cell lines” (Open Biology, 2021).

Assay [1] has as its system CAL51 cells. Put plainly: Clonogenic (colony-forming) assay. It is filed as cell-based, human. The note with it: 0.1 nM BI2536 alone, 12 h exposure, 9 days growth. The procedure:
Finally, a clonogenic assay was used to further evaluate the synergy effects between the L1 and Plk1 inhibitors to inhibit colony formation of breast cancer CAL51 cells after a 12 h drug exposure. The percentages of colony formation of cells treated with 0.1 nM BI2536 alone and 0.5 µM L1 alone were 89% and 67%, respectively, while cells treated with both 0.1 nM BI2536 and 0.5 µM L1 together were 2% (figure 10) indicating strong synergetic effects in colony formation.
Figure 10. Quantification of the colony formation experiments (n = 3) after a 12 h exposure. CAL51 cells were treated with vehicle control, 0.1 nM BI2536, 0.5 µM L1 or 0.1 nM BI2536 and 0.5 µM L1 for 12 h. Cells were grown for 9 days in fresh media after 12 h exposure. Mean ± s.e.m. (n = 3) is shown.
CAL51 cells were plated at a density of 200 cells per 60 mm tissue culture dish. After 24 h, they were treated with vehicle (DMSO), 0.1 nM BI2538, 0.5 µM L1 or the combination of 0.1 nM BI2538 and 0.5 µM L1, respectively, for 12 h. After an exposure, the cells were washed with warm sterile PBS, and incubated for additional 9 days in fresh media. After the incubation, cells were fixed and stained with a 20% MeOH: 0.01% crystal violet solution for 30 min. Colonies were counted using a stereomicroscope in three independent experiments.

The subject of assay [2] is HeLa cells. Put plainly: Time-lapse live imaging of mitotic progression and cell fate in HeLa cells (H2B-mCherry, EGFP-α-tubulin). The assay is classed as cell-based, human. The note with it: for mitotic duration (prophase to cytokinesis): 24 h imaging, DMSO control 77 ± 6 min; for phenotype after mitotic arrest: 0.1 and 0.25 µM compound. On the procedure:
To determine whether these 34 compounds also induce mitotic abnormalities in human cells, a second screen of these compounds was conducted using HeLa cells. We used time-lapse microscopy to monitor mitotic progression in HeLa cells expressing mCherry-tagged histone H2B to mark chromatin, and EGFP-tagged α-tubulin to monitor microtubules over a 24 h time period in the presence of 2 µM of each of the 34 compounds. The duration of mitosis was determined by live-cell imaging, defined as the period from prophase to cytokinesis based on chromatin and microtubule morphologies (figure 2a). The control DMSO-treated cells progressed through mitosis with a mean mitotic duration of 77 ± 6 min. Among the 34 compounds we tested, nine caused a significant increase in mitotic duration in human cells (figure 2a), ranging from 122 ± 42 min (F15) to 720 ± 53 min (C16). […] As described in the Discussion, we have not carried out a detailed analysis for B8 in this study. To determine whether these cell deaths were caused by apoptosis, caspase activity was assayed for 24 h using time-lapse microscopy in the presence of the 12 compounds. Caspase 3 and Caspase 7 activities were observed 12–24 h after the addition of the compounds (electronic supplementary material, figure S1A). There were also other indications of apoptosis including the morphological chances reminiscing of membrane blebbing, chromatin condensation and cell explosion (electronic supplementary material, figure S1B). Caspase-mediated apoptosis induction is similar to the effects of mitotic arrest caused by anti-microtubule drugs in HeLa cells. […] We conclude that these 12 compounds cause mitotic arrest followed by cell death through apoptotic activation.
Figure 2. Effect of compounds on mitotic progression in HeLa cell (a). Duration of mitosis was analysed by live imaging of HeLa cells stably expressing H2B-mcherry (red) and EGFP-a tubulin (green) treated in the presence of 0.5 µM (K1, L1, J1) or 2 µM (C16, E2, O12, M2, I15, J3, I2, A15, F15) compound for 24 h and the time in mitosis was measured in 200 cells. DMSO-treated cells are shown, which served as the vehicle control. Show mean as ‘+’. (b). The Cell fate after mitosis (normal division, abnormal division or cell death) was quantitatively assessed after the mitotic arrest observed in (a). (c) Dose-dependent change of phenotypes after mitotic arrest with K1, L1 and J1.
For live-cell imaging experiments, 200 000 cells were seeded onto glass-bottom culture dishes (MatTek P35GC-1.5-14-C). Cells were grown overnight before the addition of the compound, and the culture media was replaced with fresh media lacking phenol red to limit phototoxicity before imaging.
Live-cell imaging was performed in a LCV110 U VivaView FL incubator microscope (Olympus) equipped with an X-Cite-exacte illumination source (Excelitas Technologies) and Orca-R2 CCD camera (Hamamatsu Photonics). For screening, images were acquired with a 20 × objective every 15 min for 24–48 h in the differential interference contrast (DIC), m-cherry and GFP channels. For assessment of apoptosis, the cells were monitored every 15 min for 24 h. Individual cells were manually analysed using the CellCognition browser.

Assay [3] has as its target T1, porcine brain tubulin heterodimer (Sus scrofa, UniProt P02550+P02554).
T1 construct: highly purified porcine brain tubulin heterodimer; purchased Cytoskeleton T240 (kit BK011P); host or cells: porcine brain tissue
Put plainly: In vitro tubulin polymerization assay. The assay is classed as biochemical. The note with it: 37°C; for IC50: figure 3c, 1 h. The procedure:
To determine whether the 12 compounds affected mitotic spindle organization by directly interfering with tubulin polymerization, we performed in vitro tubulin polymerization assays. […] Tubulin polymerization was monitored every 1 min by measuring fluorescence absorbance at 340 nm for 1 h.
Figure 3. […] Tubulin was incubated with 5 µM of the compounds and DMSO for 60 min at 37°C. The fluorescence increase was monitored every minute at 340 nm. […] (b). […] Nocodazole (NOC) was used as the control. (c). […] (d) The same experiment as (c) but carried out at a different time.
The Tubulin Polymerization HTS Assay Kit (Cytoskeleton, BK011P) was used according to the manufacturer's instructions. All components were added into a 96-well microtiter plate (Corning Costar, cat. no. 3686), then the tubulin reaction mixture was quickly added to the wells, and tubulin polymerization was initiated and monitored every 1 min at 37°C for 1 h by recording fluorescence of excitation wavelength at 340 nm and emission at 450 nm. The tubulin reaction mixture was composed of 80 mM PIPES (pH 6.9), and 1 mM MgCl2, 1 mM EGTA, 1 mM GTP and 2 mg ml^−1 of highly purified porcine brain tubulin heterodimer (Cytoskeleton, cat. no. T240).

Assay [4] deals with BT549, CAL51 and MB-157 breast cancer cell lines. Put plainly: Viability dose-response in breast cancer cell lines. It is filed as cell-based. The note with it: Homo sapiens, 96 h; range over the breast cell lines and the non-cancer cell line MCF-10A; 4 days of treatment. On the procedure: The sensitivity of the inhibitors L1, J3, A15 and M2 were evaluated in three breast cancer cell lines, (BT549, CAL51 and MB-157) and a non-cancer cell line from the human mammary gland, MCF-10A (figure 8). Drug sensitivity was determined by culturing breast cancer cell lines (black lines) and the non-cancer cell line (red line) with a range of concentrations of each compound, and viability was measured after 4 days of treatment in triplicate.
Figure 8. Dose–response curves in three cancer cell lines (BT549, CAL51 and MB-157) are shown in black and non-cancer cell line; MCF-10A is shown in red. They were subjected to a dose–response matrix of the tubulin inhibitor, L1, A15, M2 and J3, respectively. Viability relative to the vehicle control was measured […] after treatment. Mean ± s.e.m. for n = 3 experiments is shown.
(§1) Cells were plated in 384-well plates at a density of 800 cells per well in 22.5 µl of media. After 24 h, 2.5 µl drug was diluted in media and was added to each well. Following 5 days of incubation, viability was assessed using CellTiter-Glo (Promega) according to the manufacture's protocol. Luminescence in each well was measured using a Synergy Neo2 plate reader (BioTek).

Assay [5] concerns MDR-sup fission yeast. Put plainly: Phenotypic assay of microtubule organization in MDR-sup strain expressing GFP-atb2. The assay is classed as cell-based, Schizosaccharomyces pombe. Particulars: same phenotype = no interphase microtubules or mitotic spindles detectable, tubulin in nucleus; figure S2. The procedure:
We have previously screened a collection of 10 371 small molecules to identify compounds that inhibit the growth of a multiple-drug-sensitive fission yeast strain (MDR-sup). We selected 248 compounds (2.4% of the total) that inhibited fission yeast cell growth rate by at least 50% (figure 1a) and subsequently conducted a phenotypic screen of these to identify drugs that affect microtubule organization (figure 1b). After the MDR-sup cells were treated with 5 µM of each compound for 3 h, microtubules were monitored using GFP tagged α-tubulin Atb2 and live-cell fluorescence microscopy. In untreated interphase cells, microtubules form long cytoplasmic arrays that run parallel to the long cellular axis, and in mitotic cells, microtubules form a bipolar spindle in the nucleus and the cytoplasmic microtubules disappear (figure 1c(i), arrow). […] This screen identified 34 compounds that induced cytological phenotypes indicative of defects in microtubule organization or function.
Figure 1. Phenotypic screening in MDR-sup fission yeast (a). Growth assay screening using MDR-sup strain. The optical density was measured with 20 µM of each compound and 248 compounds that gave at least 50% growth inhibition were used for further phenotyping marked by the red lines. Growth was normalized to DMSO-treated cells. (b) Schematic representation of the screening workflow. (c) Examples of the phenotypic assay using L1, P2 and B8 in the MDR-sup strain expressing GFP-atb2 (tubulin) are shown. Cells were incubated in 5 µM compound for 3 h and atb2 signals were detected in living cells. (i) Cells in absence of any compound. In interphase cells, α-tubulin Atb2 protein was detected in the nucleus and interphase microtubules, while mitotic spindles were detected in mitotic cells (arrows). (ii) In the presence of L1, microtubules were depolymerized and tubulin signals were detected distributed throughout the nucleus. (iii) In the presence of P2, short spindles were detected but anaphase spindles were not. (iv) In the presence of B8, interphase microtubules were not detected, while, dots were detected. […]

For assay [6], the system named is WTβIII HeLa cell line. Description: Cell viability in HeLa cell line overexpressing wild-type βIII tubulin. It is filed as cell-based. The note with it: Homo sapiens. The procedure:
One of the main mechanisms of drug resistance is due to the overexpression of class III β tubulin. […] The ability of L1 to overcome β III tubulin-mediated multidrug resistance was evaluated in two HeLa isogenic cell lines.
Figure 7.
as §1

The mark [7] stands for this setting: read-out: IC50 of tubulin polymerization.

Where two headings read alike, the source gives them in different places.

T1 sequence (P02554 whole entry): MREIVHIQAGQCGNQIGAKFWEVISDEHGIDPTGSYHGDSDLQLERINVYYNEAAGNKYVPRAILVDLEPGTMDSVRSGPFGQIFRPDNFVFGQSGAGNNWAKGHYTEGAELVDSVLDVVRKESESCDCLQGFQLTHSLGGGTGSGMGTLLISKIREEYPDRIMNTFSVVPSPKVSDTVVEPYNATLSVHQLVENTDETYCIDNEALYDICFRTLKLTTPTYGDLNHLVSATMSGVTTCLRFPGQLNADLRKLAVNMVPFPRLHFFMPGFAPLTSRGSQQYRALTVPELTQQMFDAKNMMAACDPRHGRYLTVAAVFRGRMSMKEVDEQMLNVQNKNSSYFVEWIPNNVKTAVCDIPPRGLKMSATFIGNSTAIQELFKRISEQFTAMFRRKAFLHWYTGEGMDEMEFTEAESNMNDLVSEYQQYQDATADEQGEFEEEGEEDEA
T1 sequence (P02550 whole entry): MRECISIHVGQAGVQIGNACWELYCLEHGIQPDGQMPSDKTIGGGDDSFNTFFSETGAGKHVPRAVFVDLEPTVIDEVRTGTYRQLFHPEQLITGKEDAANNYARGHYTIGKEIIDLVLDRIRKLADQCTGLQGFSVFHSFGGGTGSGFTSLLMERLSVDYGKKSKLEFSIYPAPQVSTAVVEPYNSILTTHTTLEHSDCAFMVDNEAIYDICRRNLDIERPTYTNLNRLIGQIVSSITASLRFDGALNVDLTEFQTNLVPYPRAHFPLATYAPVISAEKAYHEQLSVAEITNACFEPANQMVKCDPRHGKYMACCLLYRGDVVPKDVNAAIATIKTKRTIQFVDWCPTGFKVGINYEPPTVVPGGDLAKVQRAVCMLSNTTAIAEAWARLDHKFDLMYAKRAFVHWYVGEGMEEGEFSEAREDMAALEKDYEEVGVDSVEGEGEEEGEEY

For the molecule `CC[C@@H]1C(=O)N(C)c2cnc(Nc3ccc(C(=O)NC4CCN(C)CC4)cc3OC)nc2N1C1CCCC1` [BI2536, reference compound], the “percentage of colony formation” value in assay [1] is reported as 89%.

Take `Nc1nn(S(=O)(=O)c2c(F)c(F)c(F)c(F)c2F)cc1-c1ccc(Cl)cc1` [C16]: the “mitotic duration (prophase to cytokinesis)” value in assay [2] (2 µM compound) was determined as 720 ± 53 min.

Regarding `CC(C)(C)C#C/C=N/n1nnc(-c2ccccc2)n1` [F15], in assay [2] (2 µM compound), the “mitotic duration (prophase to cytokinesis)” value came out at 122 ± 42 min. In addition, in assay [3] (5 µM compound, 60 min), the “effect on in vitro tubulin polymerization” value is recorded as “no observable effects on polymerization”.

As to `COc1ccc(C2Oc3ccc4ccccc4c3C=C2[N+](=O)[O-])cc1OC` (centres unmarked) [J1], the cell fate entry in assay [2] (0.5 µM compound) is on record as “arrested cells initially in mitosis, followed by cell death”; in assay [2] (2 µM compound), “immediately induced cell death independent of the phase of the cell cycle”. Further, the “phenotype after mitotic arrest” value in assay [2] is listed as “abnormal multipolar, asymmetric cell divisions, generating 3–4 daughter cells”.

Consider `O=[N+]([O-])C1=Cc2ccccc2OC1c1ccc2c(c1)OCO2` (centres unmarked) [K1], for which the cell fate entry in assay [2] (0.5 µM compound) is “arrested cells initially in mitosis, followed by cell death”; in assay [2] (2 µM compound), “immediately induced cell death independent of the phase of the cell cycle”. Moreover, the “phenotype after mitotic arrest” value in assay [2] is on record as “abnormal multipolar, asymmetric cell divisions, generating 3–4 daughter cells”. Also, the IC50 in assay [3] (setting [7]) was 590 nM.

As for `N#CCCS(=O)(=O)c1nnnn1-c1ccccc1` [M2], the values for the IC50 in assay [3] (setting [7]) and in assay [4] were 220 nM and 1400 to 1900 nM, respectively.

`COC(=O)Nc1nc2ccc(C(=O)c3cccs3)cc2[nH]1` [NOC, nocodazole, reference compound]: the “microtubule phenotype with known inhibitors of microtubule polymerization” value in assay [5] was “same phenotype”. The molecule also showed an IC50 in assay [3] (IC50 of tubulin polymerization) of 560 nM.

Regarding `CCCCNC(=O)n1c(NC(=O)OC)nc2ccccc21` [benomyl], in assay [5], the “microtubule phenotype with known inhibitors of microtubule polymerization” value was “same phenotype”.

Regarding `CC(=O)O[C@H]1C(=O)[C@@]2(C)[C@H]([C@H](OC(=O)c3ccccc3)[C@]3(O)C[C@H](OC(=O)[C@H](O)[C@@H](NC(=O)c4ccccc4)c4ccccc4)C(C)=C1C3(C)C)[C@]1(OC(C)=O)CO[C@@H]1C[C@@H]2O` [paclitaxel], the 50% inhibitory concentration (IC50) in assay [6] was 5.6 nM.
